What was measured:
human ACC1 = biological target: T1, human ACC1 (Homo sapiens, UniProt Q13085); assay: Human ACC enzymatic activity assay (ACC1); format: biochemical; details: purified human ACC1; read-out: EA-CoA hACC 1 IC50
T1 construct: purchased BPS Bioscience
Protocol: (§1) Human ACC enzymatic activity assays were performed by using purified human ACC1 and ACC2 proteins (BPS Bioscience). ACC1 and ACC2 proteins were diluted in 24.5 μL reaction buffer (50 mM HEPES pH 7.5, 10 mM MgCl2, 2.0 mM DTT, 4.0 mM ATP, 15 mM ^13C-NaHCO3, 0.75 mg/mL BSA, 0.5 mM sodium citrate), and final concentrations of ACC1 and ACC2 were 0.4 μg/mL and 0.48 μg/mL. For each reaction, 0.5 μL of serial diluted compounds were prepared in DMSO in duplicate or triplicate and mixed with the above 24.5 μL reaction mixtures with ACC proteins at 37° C. for 10 min. Meanwhile, 25 μL of reaction buffer plus acetyl-CoA (final concentration: 5 μM) was prepared freshly and added to the above 25 μL mixture to initiate the reaction. After incubation at 37° C. for 1-2 hours, 100 μl ice-cold 10% TCA with malonyl-^13C3-CoA (final concentration: 40 nM, Sigma-Aldrich) was added to terminate the reaction. For LC-MS/MS analysis, 300 μL quenching buffer (acetonitrile:methanol=1:1, 20 μM carbutamide as internal standard) was added to each tube and mixed well. Samples were then centrifuged at 14,000 rpm for 10 min (Eppendorf) and supernatants were loaded onto LC-MS/MS for quantitation of […] (Gao et al., Journal of chromatography B, Analytical technologies in the biomedical and life sciences 853, 303-313 (2007)).
(§2) Shimadzu LC system was used for sample analysis consisting of system controller (Shimadzu CBM-20A), autosampler (Shimadzu SIL-20A), pump A and B (Shimadzu LC-20AD), column oven (Shimadzu CTO-20A), and analytical column (Phenomenex Gemini 5u C18 11A, 100×2 mm). LC was running at 200 μL/min in the binary gradient mode with mobile phase A (5 mM Ammonium Acetate and 5 mM DMBA in water (1,3-Dimethylbutylamine)) and B (methanol). The samples were analyzed on an AB Sciex QTrap4000 LC-MS/MS triple quadrupole mass spectrometer (Applied Biosystems). Malonyl-CoA and malonyl-13C-CoA were monitored in positive ion mode following MRM transitions at 854.2/347.1 and 855.1/246.1, respectively. The product and internal standard were coeluted to the mass spectrometer in 3 s with 50% H2O, 25% MeCN, 25% acetone, and 5 mM ammonium acetate. Ion chromatograms were integrated using the Analyst 1.5.2 software. Peak area ratios were compared against a standard curve and final cellular concentration of malonyl-CoA or production rate of malonyl-13C-CoA was calculated as pmoles/mg protein per minute.

human ACC2 = biological target: T2, human ACC2 (Homo sapiens, UniProt O00763); assay: Human ACC enzymatic activity assay (ACC2); format: biochemical; details: purified human ACC2; read-out: EA-CoA hACC 2 IC50
T2 construct: purchased BPS Bioscience
Protocol: as §1, §2

[1] = PK study in male C57 mouse for Examples 14 and 15; format: in vivo; details: for concentration at 0.5 h: 0.50 h
Protocol: Pharmacokinetic studies were carried out with male C57 mouse. Compounds (Example 14 and Example 15) were each formulated in 5% DMSO+10% Solutol HS 15+85% Saline, and dosed at 1 mpk for IV injection (5 mL/kg) and 10 mpk for oral gavage (10 mUkg). Plasma samples at various time points were quantitated with LC-MS. Data reported were average of three mice.
Tables 1 and 2 below show plasma concentrations (ng/mL) and PK parameters of Example 14 in male C57 mouse after 1 mpk IV injection and 10 mpk PO gavage, respectively. The plasma concentration (ng/mL) of the acid compound, Example 15, was also measured and reported below.
Tables 3 and 4 below show plasma concentrations (ng/mL) and PK parameters of Example 15 in male C57 mouse after 1 mpk IV injection and 10 mpk PO gavage, respectively.

[2] = male, C57, mouse, plasma, iv, 1 mg/kg, Example 14 dosed 1 mpk IV, analyte = labelled compound
[3] = male, C57, mouse, plasma, iv, 1 mg/kg, Example 15 dosed 1 mpk IV
[4] = male, C57, mouse, plasma, po, 10 mg/kg, Example 14 dosed 10 mpk PO gavage, analyte = labelled compound
[5] = male, C57, mouse, plasma, po, 10 mg/kg, Example 15 dosed 10 mpk PO gavage
[6] = plasma, 1 mg/kg, Example 15 dosed 1 mpk IV

T2 sequence (O00763 whole entry): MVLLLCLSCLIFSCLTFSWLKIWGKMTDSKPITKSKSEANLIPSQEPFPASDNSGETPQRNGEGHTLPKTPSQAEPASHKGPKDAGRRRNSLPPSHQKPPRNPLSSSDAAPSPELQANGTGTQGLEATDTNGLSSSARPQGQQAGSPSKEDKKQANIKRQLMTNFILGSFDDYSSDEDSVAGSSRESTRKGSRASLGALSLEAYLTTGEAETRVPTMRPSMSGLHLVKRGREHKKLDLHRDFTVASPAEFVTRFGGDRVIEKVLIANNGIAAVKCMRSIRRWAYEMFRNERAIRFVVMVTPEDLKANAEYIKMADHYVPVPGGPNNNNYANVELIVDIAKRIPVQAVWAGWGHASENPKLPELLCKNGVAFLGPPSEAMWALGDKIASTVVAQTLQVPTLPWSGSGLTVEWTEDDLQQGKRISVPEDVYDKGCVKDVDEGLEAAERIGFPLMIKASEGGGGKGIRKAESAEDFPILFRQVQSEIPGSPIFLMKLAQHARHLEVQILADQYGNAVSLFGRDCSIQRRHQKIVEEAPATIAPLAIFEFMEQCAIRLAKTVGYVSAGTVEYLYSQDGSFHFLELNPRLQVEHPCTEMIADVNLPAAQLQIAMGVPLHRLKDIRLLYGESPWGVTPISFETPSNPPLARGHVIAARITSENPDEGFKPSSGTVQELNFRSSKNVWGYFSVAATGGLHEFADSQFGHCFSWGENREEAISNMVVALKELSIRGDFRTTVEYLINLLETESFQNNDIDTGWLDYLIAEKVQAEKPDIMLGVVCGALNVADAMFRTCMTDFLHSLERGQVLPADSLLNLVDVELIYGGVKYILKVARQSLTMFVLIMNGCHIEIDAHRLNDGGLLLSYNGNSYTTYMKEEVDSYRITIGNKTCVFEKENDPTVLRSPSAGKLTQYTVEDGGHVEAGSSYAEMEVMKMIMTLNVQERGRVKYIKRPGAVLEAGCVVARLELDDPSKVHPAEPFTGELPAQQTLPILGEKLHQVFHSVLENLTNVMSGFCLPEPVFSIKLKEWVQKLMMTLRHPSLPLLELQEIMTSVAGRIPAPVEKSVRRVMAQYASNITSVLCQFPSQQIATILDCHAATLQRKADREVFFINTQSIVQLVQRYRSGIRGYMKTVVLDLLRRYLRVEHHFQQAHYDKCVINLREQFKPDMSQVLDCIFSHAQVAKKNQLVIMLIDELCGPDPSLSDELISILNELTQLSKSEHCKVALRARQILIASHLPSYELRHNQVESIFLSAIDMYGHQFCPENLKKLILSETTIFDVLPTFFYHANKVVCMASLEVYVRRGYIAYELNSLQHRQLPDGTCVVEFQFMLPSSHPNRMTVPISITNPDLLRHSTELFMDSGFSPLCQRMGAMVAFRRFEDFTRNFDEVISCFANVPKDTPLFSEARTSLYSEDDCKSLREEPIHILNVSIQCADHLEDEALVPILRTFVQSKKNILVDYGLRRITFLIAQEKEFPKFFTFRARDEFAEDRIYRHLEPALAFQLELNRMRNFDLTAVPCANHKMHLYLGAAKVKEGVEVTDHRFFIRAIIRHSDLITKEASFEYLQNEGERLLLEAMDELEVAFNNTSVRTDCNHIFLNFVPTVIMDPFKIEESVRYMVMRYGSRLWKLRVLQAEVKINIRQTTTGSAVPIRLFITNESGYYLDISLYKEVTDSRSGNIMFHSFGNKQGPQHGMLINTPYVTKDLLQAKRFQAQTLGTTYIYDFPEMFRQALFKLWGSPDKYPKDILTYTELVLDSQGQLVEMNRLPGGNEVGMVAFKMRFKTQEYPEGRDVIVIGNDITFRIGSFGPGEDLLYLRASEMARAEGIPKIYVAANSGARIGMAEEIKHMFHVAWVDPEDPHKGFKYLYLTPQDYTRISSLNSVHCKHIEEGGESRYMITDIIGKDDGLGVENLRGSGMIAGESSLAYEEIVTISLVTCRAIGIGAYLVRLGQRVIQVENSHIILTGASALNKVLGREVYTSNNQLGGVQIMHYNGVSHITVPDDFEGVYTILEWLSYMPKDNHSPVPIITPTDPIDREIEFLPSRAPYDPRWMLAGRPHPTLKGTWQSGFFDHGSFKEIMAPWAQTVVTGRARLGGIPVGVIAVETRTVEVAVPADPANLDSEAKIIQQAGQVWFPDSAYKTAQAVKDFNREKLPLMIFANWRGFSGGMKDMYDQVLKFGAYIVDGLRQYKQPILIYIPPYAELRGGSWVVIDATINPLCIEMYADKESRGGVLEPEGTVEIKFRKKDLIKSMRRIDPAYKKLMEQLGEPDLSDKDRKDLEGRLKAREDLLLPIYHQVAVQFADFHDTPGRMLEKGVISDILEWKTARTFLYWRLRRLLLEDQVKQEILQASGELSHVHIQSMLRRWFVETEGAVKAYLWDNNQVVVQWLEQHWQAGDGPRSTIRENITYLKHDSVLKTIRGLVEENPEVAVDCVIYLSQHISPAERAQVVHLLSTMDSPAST

COc1cc(C(=O)N2CCC3(CC2)Cc2ccc(-c4cncc(C(=O)O)c4)cc2C(=O)O3)nc2c(OC)cccc12 [Example 15, 5-(1′-(4,8-dimethoxyquinoline-2-carbonyl)-1-oxospiro [isochroman-3,4′-piperidin]-7-yl)nicotinic acid]
IC50 (human ACC1): 27.5 nM | IC50 (human ACC2): 33 nM | Plasma Concentration, Mean ([1]; Example 14 dosed 1 mpk IV, 24.00 h, analyte = labelled compound): BLQ | Plasma Concentration, Mean ([1]; Example 15 dosed 1 mpk IV, 4.00 h): BLQ | Plasma Concentration, Mean ([1]; Example 15 dosed 1 mpk IV, 8.00 h): BLQ | Plasma Concentration, Mean ([1]; Example 15 dosed 1 mpk IV, 24.00 h): BLQ | F ([1]; Example 15 dosed 10 mpk PO gavage): 1.7% | Plasma Concentration, Mean ([1]; Example 15 dosed 10 mpk PO gavage, 24.00 h): BLQ | concentration at 0.08 h [1, 2]: 122 ng/mL | concentration at 0.25 h [1, 2]: 161 ng/mL | concentration at 0.5 h [1, 2]: 107 ng/mL | concentration at 1 h [1, 2]: 55 ng/mL | concentration at 2 h [1, 2]: 16 ng/mL | concentration at 4 h ([1]; male, C57, mouse, plasma, iv, 1 mg/kg, Example 14 dosed 1 mpk IV, 4.00 h, analyte = labelled compound): 3.4 ng/mL | concentration at 8 h ([1]; male, C57, mouse, plasma, iv, 1 mg/kg, Example 14 dosed 1 mpk IV, 8.00 h, analyte = labelled compound): 1.5 ng/mL | MRT [1, 3]: 6.6 min | concentration at 0.08 h [1, 3]: 3010 ng/mL | concentration at 0.25 h [1, 3]: 414 ng/mL | concentration at 0.5 h [1, 3]: 95 ng/mL | concentration at 1 h [1, 3]: 28 ng/mL | concentration at 2 h [1, 3]: 6.6 ng/mL | concentration at 0.25 h [1, 4]: 152 ng/mL | concentration at 0.5 h [1, 4]: 168 ng/mL | concentration at 1 h [1, 4]: 146 ng/mL | concentration at 2 h [1, 4]: 84 ng/mL | concentration at 4 h ([1]; male, C57, mouse, plasma, po, 10 mg/kg, Example 14 dosed 10 mpk PO gavage, 4.00 h, analyte = labelled compound): 43 ng/mL | concentration at 8 h ([1]; male, C57, mouse, plasma, po, 10 mg/kg, Example 14 dosed 10 mpk PO gavage, 8.00 h, analyte = labelled compound): 23 ng/mL | concentration at 24 h ([1]; male, C57, mouse, plasma, po, 10 mg/kg, Example 14 dosed 10 mpk PO gavage, 24.00 h, analyte = labelled compound): 2.1 ng/mL | Cmax [1, 4]: 185 ng/mL | MRT [1, 4]: 186 min | Tmax [1, 4]: 34.8 min | Cmax [1, 5]: 164 ng/mL | MRT [1, 5]: 59.4 min | Tmax [1, 5]: 15 min | concentration at 0.25 h [1, 5]: 164 ng/mL | concentration at 0.5 h [1, 5]: 99 ng/mL | concentration at 1 h [1, 5]: 63 ng/mL | concentration at 2 h [1, 5]: 11 ng/mL | concentration at 4 h ([1]; male, C57, mouse, plasma, po, 10 mg/kg, Example 15 dosed 10 mpk PO gavage, 4.00 h): 3.2 ng/mL | concentration at 8 h ([1]; male, C57, mouse, plasma, po, 10 mg/kg, Example 15 dosed 10 mpk PO gavage, 8.00 h): 2 ng/mL | Vd [1, 6]: 0.49 L/kg | clearance [1, 6]: 23.3 mL/min/kg | half-life [1, 6]: 17.4 min

Reference: patent publication US12102633B2, “Spirolactone compounds” (Quixgen, Inc., priority 2017, dated 2024)
